Measurements as given in patent publication US7816134B2, “Method of extensive culture of antigen-specific cytotoxic T cells” (Takara Bio Inc., priority 2000, dated 2010).
Read-outs that look alike come from different tables or passages of the source.

Legend:
[1] = system: HLA-A2.1-having EBV transformed B-cells (221A2.1); details: FluMPA2.1
[2] = system: HLA-A2.1-having EBV transformed B-cells (221A2.1); details: for Cytotoxic Activity (%) E/T Ratio 1 / Cytotoxic Activity (%) E/T Ratio 3 / Cytotoxic Activity (%) E/T Ratio 10 / Cytotoxic Activity (%) E/T Ratio 2.5 / Cytotoxic Activity (%) E/T Ratio 5: FluMPA2.1; for Cytotoxic Activity (%) E/T Ratio 2.5 / Cytotoxic Activity (%) E/T Ratio 5: Example 1-4
[3] = system: anti-influenza virus memory CTLs (FluMPA2.1); type: cell-based, human
[4] = Example 2-4, sample 10 μg/ml during CTL induction +, during expansion +, peptide addition +
[5] = Example 2-4, sample 10 μg/ml during CTL induction +, during expansion +, peptide addition −
[6] = Example 2-6, sample during CTL induction −, during expansion + (10 μg/ml), peptide addition +
[7] = Example 2-6, sample during CTL induction −, during expansion + (10 μg/ml), peptide addition −
[8] = Example 1-3, sample 10 μg/ml during CTL induction +, during culture with IL-2 +, peptide addition +
[9] = Example 1-3, sample 10 μg/ml during CTL induction +, during culture with IL-2 +, peptide addition −
[10] = Example 1-5, sample during CTL induction −, during culture with IL-2 + (10 μg/ml), peptide addition +
[11] = Example 1-5, sample during CTL induction −, during culture with IL-2 + (10 μg/ml), peptide addition −
[12] = sample 10 μg/ml only during continuous culture
[13] = Example 2-4, sample 10 μg/ml during CTL induction +, during expansion +
[14] = Example 2-6, sample during CTL induction −, during expansion + (10 μg/ml)
[15] = sample 10 μg/ml during CTL induction +, during culture with IL-2 +, peptide addition +
[16] = sample 10 μg/ml during CTL induction +, during culture with IL-2 +, peptide addition −

| Substance | Cytotoxic Activity (%) E/T Ratio 3 [1, 4] [%] | Cytotoxic Activity (%) E/T Ratio 10 [1, 4] [%] | Cytotoxic Activity (%) E/T Ratio 3 [1, 5] [%] | Cytotoxic Activity (%) E/T Ratio 10 [1, 5] [%] | Cytotoxic Activity (%) E/T Ratio 1 [1, 6] [%] | Cytotoxic Activity (%) E/T Ratio 3 [1, 6] [%] | Cytotoxic Activity (%) E/T Ratio 10 [1, 6] [%] | Cytotoxic Activity (%) E/T Ratio 30 [1, 6] [%] | Cytotoxic Activity (%) E/T Ratio 1 [1, 7] [%] | Cytotoxic Activity (%) E/T Ratio 3 [1, 7] [%] | Cytotoxic Activity (%) E/T Ratio 10 [1, 7] [%] | Cytotoxic Activity (%) E/T Ratio 30 [1, 7] [%] | Cytotoxic Activity (%) E/T Ratio 1 [2, 8] [%] | Cytotoxic Activity (%) E/T Ratio 3 [2, 8] [%] | Cytotoxic Activity (%) E/T Ratio 10 [2, 8] [%] | Cytotoxic Activity (%) E/T Ratio 10 [2, 10] [%] | Cytotoxic Activity (%) E/T Ratio 10 [2, 11] [%] | cytotoxic activity after continuous culture (in words) [2, 12] | Expansion Ratio [3, 13] | Expansion Ratio [3, 14] | also measured |
| --- | --- | --- | --- | --- | --- | --- | --- | --- | --- | --- | --- | --- | --- | --- | --- | --- | --- | --- | --- | --- | --- |
| swellable alginic acid | 65.0 | 101.6 | 14.3 | 21.3 | 15.4 | 22.0 | 47.8 | 81.7 | 0.1 | 0 | 2.1 | 10.6 | 39.8 | 75.3 | 86.9 | 35.6 | 8.8 | maintaining an antigen-specific cytotoxic activity | × 176 | × 378 | Cytotoxic Activity (%) E/T Ratio 1 [2, 9]: 12.5%; Cytotoxic Activity (%) E/T Ratio 3 [2, 9]: 26.5%; Cytotoxic Activity (%) E/T Ratio 10 [2, 9]: 22.2%; Cytotoxic Activity (%) E/T Ratio 1 [2, 10]: 12.6%; Cytotoxic Activity (%) E/T Ratio 3 [2, 10]: 18.7%; Cytotoxic Activity (%) E/T Ratio 1 [2, 11]: 3.3%; Cytotoxic Activity (%) E/T Ratio 3 [2, 11]: 1.3% |
| non-swellable alginic acid | 63.5 | 81.4 | 26.2 | 26.8 | 13.5 | 24.1 | 50.4 | 76.0 | 0.5 | 5.2 | 6.5 | 14.4 | 28.1 | 52.7 | 77.1 | 24.9 | 6.1 | maintaining an antigen-specific cytotoxic activity | × 220 | × 335 | Cytotoxic Activity (%) E/T Ratio 1 [2, 9]: 12.9%; Cytotoxic Activity (%) E/T Ratio 3 [2, 9]: 24.8%; Cytotoxic Activity (%) E/T Ratio 10 [2, 9]: 14.0%; Cytotoxic Activity (%) E/T Ratio 1 [2, 10]: 9.5%; Cytotoxic Activity (%) E/T Ratio 3 [2, 10]: 13.8%; Cytotoxic Activity (%) E/T Ratio 1 [2, 11]: 3.9%; Cytotoxic Activity (%) E/T Ratio 3 [2, 11]: 4.6% |
| pectic acid | 47.0 | 69.8 | 11.6 | 7.3 | 18.2 | 33.3 | 64.2 | 87.8 | 2.3 | 4.1 | 8.2 | 15.9 |  |  |  | 16.5 | 0 | maintaining an antigen-specific cytotoxic activity | × 160 | × 350 | Cytotoxic Activity (%) E/T Ratio 2.5 [2, 15]: 32.0%; Cytotoxic Activity (%) E/T Ratio 5 [2, 15]: 49.4%; Cytotoxic Activity (%) E/T Ratio 2.5 [2, 16]: 3.4%; Cytotoxic Activity (%) E/T Ratio 5 [2, 16]: 5.5%; cytotoxic activity after continuous culture (in words) ([2]; sample 10 μg/ml during CTL induction and during continuous culture, 10 to 14 days): effects for maintaining cytotoxic activity |
